This is an account of results in patent US10414789B2, “Compositions comprising cyclic purine dinucleotides having defined stereochemistries and methods for their preparation and use” (ADURO BIOTECH, INC., priority 2012, dated 2019).

One assay concerns DC2.4 cells. The experiment in a line: IFN-β induction by CDNs in DC2.4 antigen presenting cells (L929-ISRE luciferase reporter readout). The following applies: for relative level of IFN-β induced: DC2.4 cells incubated with 5, 20 and 100 μM CDN for 30 minutes, culture fluids after 4 hours, RLU in L929-ISRE reporter cells, FIG. 7; for level of IFN-β expression compared to c-di-GMP or c-di-AMP: cyclic dinucleotides not incubated with SVPD, 100 μM, DC2.4 cells, FIG. 8. The class given is cell-based, mouse. How it is done: To measure the level of induced IFN-β, cell culture fluids from each sample were collected after 4 hours, and 10 μL was added to 5×10^4 L929-ISRE luciferase reporter cells cultured in RPMI media+10% FBS.

Assay [1] has as its system snake venom phosphodiesterase (SVPD). The following applies: 1 mg SVPD overnight at 37° C.; then 100 μM on DC2.4 cells; FIG. 8.
Assay [2] concerns OVA-specific CD4+ and CD8+ T cell responses. Briefly: OVA-specific CD4+ and CD8+ T cell responses in PBMC by IFN-γ ELISpot after vaccination with OVA/Addavax plus CDN. The class given is in vivo, C57BL/6 mice. The settings on record: once s.c., PBMC 10 days post vaccination, FIG. 9. The procedure: To test the enhanced in vivo immunogenicity of Rp, Rp dithio c-di-GMP relative to unmodified c-di-GMP molecules, OVA-specific CD4+ and CD8+ T cell responses were measured in PBMCs at 10 days post vaccination in conjunction with CDN treatment. Vaccines were prepared by combining 10 μg of OVA protein (EndoFit OVA, InVivogen) and Addavax (2% squalene final) with either 25 μg or 5 μg of cyclic dinucleotide, in a total volume of 100 μL. Groups of five female C57BL/6 mice (H-2b) were immunized once subcutaneously (s.c) in the base of the tail with the vaccine preparations, and the OVA-specific CD4+ and CD8+ T cell responses in the peripheral blood mononuclear cell (PBMC) compartment were determined by ELISpot analysis 10 days later. 1×10^5 PBMCs and 1×10^5 splenocyte feeder cells isolated from aged-matched naïve C57BL/6 mice were un-stimulated or stimulated with 1 μM of MHC class II peptide (OVA265-280 TEWTSSNVMEERKIKV) or MHC class I (OVA257-264 SIINFEKL) peptide overnight and IFN-γ spot forming cells were measured, as described previously.

The test system of assay [3] is OVA257-specific CD8 T cell responses. The experiment in a line: OVA-specific CD8 T cell memory and expansion in PBMC by intracellular cytokine staining after prime-boost vaccination. The class given is in vivo, C57BL/6 mice. How it is done: (§1) To establish the enhanced immunogenicity and accompanying protective immunity induced by Rp, Rp dithio c-di-GMP relative to unmodified c-di-GMP, OVA-specific CD8 T cell responses measured in PBMC and protective immunity assessed against lethal bacterial challenge. Vaccines were prepared by combining 10 μg of OVA protein (EndoFit OVA, InVivogen) and Addavax (2% squalene final) with 25 μg of cyclic dinucleotide, in a total volume of 100 μL. Groups of five female C57BL/6 mice (H-2^b) were immunized twice subcutaneously (s.c) in the base of the tail with the vaccine preparations. The interval between the prime and boost immunizations was 36 days. The magnitude of both the memory and expansion phases of the OVA257-specific CD8 T cell responses in PBMC were quantified by intracellular cytokine staining (ICS) analysis at both 27 days post-boost vaccination and at 3 days post challenge with a 2× lethal dose (LD)50 dose (1×10^5 colony forming units; CFU) of OVA-expressing wild-type Listeria monocytogenes (WT Lm-OVA). For ICS analysis, 1×10^5 PBMCs from test mice combined with 1×10^5 splenocyte feeder cells isolated from aged-matched naïve C57BL/6 mice were un-stimulated or stimulated with 1 μM of MHC class I peptide (OVA257-264 SIINFEKL) for 5 hrs. in the presence of Brefeldin A, and IFN-γ production was measured by flow cytometry on a BD FACSVerse.

Assay [4] concerns SIV gag-specific CD8+ and CD4+ T cell responses. The experiment in a line: SIV gag-specific CD8 and CD4 T cell responses by IFNγ ELISpot after vaccination with SIV gag protein plus CDN. The following applies: 1 ug CDN with 10 ug SIV gag protein in 2% squalene-in-water, s.c. twice 20 days apart, spleens six days after second vaccination; FIG. 10. The class given is in vivo, C57BL/6 mice. How it is done:
To further assess the immunogenicity of Rp, Rp dithio c-di-GMP relative to unmodified c-di-GMP molecules, SIV gag-specific CD8+ and CD4+ T cell responses were measured. Five C57BL/6 mice per group were immunized subcutaneously twice with either 1 ug Rp, Rp dithio c-di-GMP or saline control formulated in 2% squalene-in-water with 10 ug SIV gag protein. Vaccinations were separated by 20 days, and spleens were harvested six days after the second vaccination. Immune responses were measured to SIV gag-specific CD8 (AL11, SIV gag312-322, A) and CD4 (DD13, SIV gag300-312, B) T cell epitopes by IFNγ ELISpot assay. Plates were scanned and spot forming cells (SFC) per well were enumerated using an ImmunoSpot analyzer (CTL).

For assay [5], the system named is OVA-expressing wild-type Listeria monocytogenes (WT Lm-OVA). The experiment in a line: Protective immunity against lethal WT Lm-OVA challenge (spleen CFU). The class given is in vivo, C57BL/6 mice. The settings on record: i.v. 2×LD50 (1×10^5 CFU) WT Lm-OVA at 27 days post boost; spleens 3 days later; FIG. 11C. The procedure: as §1, with “FACSVerse. […]” for “FACSVerse.”

For assay [6], the system named is THP1-Blue human monocytes. The experiment in a line: IFN-β induction in THP1-Blue human monocytes (IRF-inducible SEAP reporter). The settings on record: FIG. 15. The class given is cell-based. The procedure:
To determine the relative potency of the prodrug form of c-di-GMP to activate the innate immune response, relative levels of IFN-β induced in a human monocyte cell line were assessed. […] Cell culture supernatants from each sample were collected after 4 hours. 10 μL of the cell culture supernatants was added to QUANTI-Blue reagent (Invivogen) and incubated for 15-30 minutes. Absorbance at 655 nm was measured using a Model 680 spectrophotometer (BioRad).

Assay [7] relates to OVA-specific CD8+ T cell responses. Briefly: OVA-specific CD8 T cell responses in splenocytes by intracellular cytokine staining after vaccination with CDN prodrug. The class given is in vivo, C57BL/6 mice. The settings on record: 5 μg CDN prodrug with 10 μg OVA and Addavax, s.c. twice, splenocytes 7 days post second vaccination; FIG. 16. How it is done:
To assess the ability of the mono-2′-O-myristoyl c-di-GMP (“mono-2′-O-myristoyl CDG”) derivative to induce in vivo immune responses, OVA-specific CD8 T cell responses were measured in splenocytes at 7 days post second vaccination in conjunction with CDN treatment. To test the ability of mono-2′-O-myristoyl c-di-GMP relative to stimulate an OVA-specific immune responses, vaccines were prepared by combining 10 μg of OVA protein (EndoFit OVA, Invivogen) and Addavax (2% squalene final) with either 0 (Control) or 5 μg of mono-2′-O-myristoyl c-di-GMP derivative (“mono-2′-O-myristoyl CDG”), in a total volume of 100 μL. Groups of five female C57BL/6 mice (H-2b) were immunized twice subcutaneously (s.c) in the base of the tail with the vaccine preparations, and the OVA-specific CD8+ T cell responses in the spleens were determined by intracellular cytokine staining 7 days later. 1×10^6 splenocytes were unstimulated or stimulated with 1 μM of MHC class I (OVA257-264 SIINFEKL; SL8) peptide overnight and IFN-γ production was measured by flow cytometer on a BD FACSVerse.

Another assay relates to TRAMP-C2 tumor cells. Briefly: Anti-tumor efficacy of CDNs formulated with GVAX in a subcutaneous murine prostate cancer model. The following applies: by day 52 post tumor implantation; s.c. vaccination on days 4 and 11; FIG. 12. The class given is in vivo, C57BL/6 mice. How it is done: The relative in vivo anti-tumor efficacy of the Rp, Rp dithio c-di-AMP and unmodified c-di-AMP derivatives were evaluated in a subcutaneous mouse model of prostate cancer. The derivative molecules were formulated with 1×10^6 irradiated whole TRAMP-C2 murine prostate tumor cells expressing GM-CSF (GVAX). Groups of 5 male C57BL/6 mice were implanted with 1×10^5 TRAMP-C2 tumor cells subcutaneous in the footpad. On days 4 and 11 post tumor implantation, mice were administered vaccinations subcutaneous in the flank of either GVAX alone, or GVAX formulated with RR-CDA or CDA, and compared to HBSS control. Tumor growth was monitored by calipers, and tumor volume was calculated.

Regarding `Nc1nc2c(ncn2[C@@H]2O[C@@H]3CO[P@@](O)(=S)O[C@H]4[C@@H](O)[C@H](n5cnc6c(=O)[nH]c(N)nc65)O[C@@H]4CO[P@](O)(=S)O[C@H]3[C@H]2O)c(=O)[nH]1` [Rp, Sp dithio c-di-GMP, dithio [Rp,Sp] c-di-GMP], the “relative level of IFN-β induced” value in the assay on DC2.4 cells is “lower than the level induced by both the Rp, Rp dithio c-di-GMP and the Rp, Rp dithio c-di-AMP diastereomers as well as the native c-di-GMP and c-di-AMP molecules”.

In the case of `Nc1nc2c(ncn2[C@@H]2O[C@@H]3COP(=O)(O)O[C@H]4[C@@H](O)[C@H](n5cnc6c(=O)[nH]c(N)nc65)O[C@@H]4COP(=O)(O)O[C@H]3[C@H]2O)c(=O)[nH]1` [c-di-GMP, reference compound], the “level of IFN-β expression after incubation of the CDN with SVPD versus without SVPD” value (shortened to “level … with SVPD versus without SVPD”) in assay [1] is on record as “significantly lower”.

As for `Nc1nc2c(ncn2[C@@H]2O[C@@H]3CO[P@@](=O)(S)O[C@H]4[C@@H](O)[C@H](n5cnc6c(=O)[nH]c(N)nc65)O[C@@H]4CO[P@@](=O)(S)O[C@H]3[C@H]2O)c(=O)[nH]1` [Rp, Rp dithio c-di-GMP, dithio [Rp,Rp] c-di-GMP], the “magnitude of antigen-specific CD8+ T cell responses compared to 5 μg or 25 μg of unmodified c-di-GMP” value in [2] (5 μg CDN) is listed as “greater”. Moreover, in assay [2] (same amount of CDN adjuvant (25 μg or 5 μg)), the “CD4+ and CD8+ OVA-specific T cell responses compared to unmodified c-di-GMP” value is recorded as “of greater magnitude”. Also, the “OVA-specific CD8 T cell memory compared to unmodified c-di-GMP adjuvanted vaccines” value in [3] (25 μg CDN, s.c. prime and boost 36 days apart, PBMC 27 days post-boost, FIG. 11A) is “higher magnitude of OVA-specific CD8 T cell memory”. Moreover, the “expansion of OVA-specific memory CD8 T cells following challenge, compared to unmodified c-di-GMP adjuvanted vaccines” value in assay [3] (3 days post challenge with 2× LD50 WT Lm-OVA, FIG. 11A) was “expanded to a higher magnitude”. Besides, the “magnitude of OVA-specific CD8 T cell memory” value in assay [3] (FACS plot, FIG. 11B, 25 μg CDN adjuvanted vaccine) was ~30 % of the total CD8 T cell population in PBMC. The “level … with SVPD versus without SVPD” value in assay [1] is “equivalent”. For the same molecule, the “SIV gag-specific CD8 and CD4 T cell responses compared to saline control” value in assay [4] is listed as “significantly higher”. In addition, the “protection against virulent pathogen challenge (spleen colonies)” value in assay [5] is given as “complete protection (below the limit of detection, LOD)”. In addition, in the assay with DC2.4 cells, the “relative level of IFN-β induced” value is reported as “induced significantly higher levels of IFN-β than either the c-di-GMP or c-di-AMP unmodified cyclic dinucleotide molecules” and the “level of IFN-β expression compared to c-di-GMP or c-di-AMP” value is “greater”. Besides, in assay [6] (human monocyte cell line), the “IFN-β induction compared to Rp, Sp dithio c-di-GMP and unmodified c-di-GMP” value was “superior induction”.

Consider `CCCCCCCCCCCCCC(=O)OC1C2OP(=O)(O)OCC3OC(n4cnc5c(=O)[nH]c(N)nc54)C(O)C3OP(=O)(O)OCC2OC1n1cnc2c(=O)[nH]c(N)nc21` (stereo not drawn) [mono-2′-O-myristoyl c-di-GMP], for which the “OVA-specific CD8 T cell immune responses compared to Control vaccines” value in assay [7] is given as “greater immune responses”. The “levels of IFN-β induced compared to unmodified c-di-GMP and background (HBSS)” value in assay [6] (100 μM for 30 minutes, supernatants after 4 hours, absorbance at 655 nm) is reported as “significantly higher levels of IFN-β”.

`Nc1ncnc2c1ncn2C1OC2COP(=O)(S)OC3C(COP(=O)(S)OC2C1O)OC(n1cnc2c(N)ncnc21)C3O` (stereo not drawn) [Rp, Sp dithio c-di-AMP, dithio [Rp,Sp] c-di-AMP]: the “relative level of IFN-β induced” value with DC2.4 cells is “lower than the level induced by both the Rp, Rp dithio c-di-GMP and the Rp, Rp dithio c-di-AMP diastereomers as well as the native c-di-GMP and c-di-AMP molecules”.

With `Nc1ncnc2c1ncn2[C@@H]1O[C@@H]2COP(=O)(O)O[C@H]3[C@@H](O)[C@H](n4cnc5c(N)ncnc54)O[C@@H]3COP(=O)(O)O[C@H]2[C@H]1O` [c-di-AMP, reference compound], the “level … with SVPD versus without SVPD” value in [1] is “significantly lower”.

`Nc1ncnc2c1ncn2C1OC2COP(=O)(S)OC3C(COP(=O)(S)OC2C1O)OC(n1cnc2c(N)ncnc21)C3O` (stereo not drawn) [Rp, Rp dithio c-di-AMP, dithio [Rp,Rp] c-di-AMP]: the “anti-tumor efficacy compared to GVAX alone or GVAX formulated with unmodified c-di-AMP” value with TRAMP-C2 tumor cells is on record as “increased anti-tumor potency”. In addition, in assay [1], the “level … with SVPD versus without SVPD” value is recorded as “equivalent”. In addition, in the assay on DC2.4 cells, the “relative level of IFN-β induced” value is recorded as “induced significantly higher levels of IFN-β than either the c-di-GMP or c-di-AMP unmodified cyclic dinucleotide molecules” and the “level of IFN-β expression compared to c-di-GMP or c-di-AMP” value is “greater”.
